A word on the inhibition: it is the share of the control response that was lost under treatment. Read a low inhibition as little suppression. The % Inhibition is how much of the control response was suppressed. Low values mean a weak effect, high ones a strong effect.

One assay relates to TNF-α release induced by LPS in human peripheral blood mononuclear cells. The experiment in a line: Test 2: Inhibition of TNF-α release induced by LPS in human peripheral blood mononuclear cells. The assay is classed as cell-based. To be noted: Homo sapiens, PBMC, test product at 0.1 μM, LPS 400 ng/mL, 19 h, TNF-α in supernatant by ELISA. As for the experimental part: Test 2: Inhibition of TNF-α Release Induced by LPS in Human Peripheral Blood Mononuclear Cells
To obtain the mononuclear cells: heparinized venous blood, obtained from healthy volunteers, is diluted with an equal volume of saline phosphate buffer without calcium or magnesium. Aliquots of 30 mL of the mixture are transferred to 50 mL centrifuge tubes containing 15 mL of Ficoll-Hypaque (1.077 g/mL). The tubes are centrifuged at 1200×g for 20 min at room temperature without braking. Approximately two-thirds of the band of platelets lying above the mononuclear cells is removed with a pipette. The mononuclear cells are carefully transferred to a 50 mL tube, washed twice with saline phosphate buffer, centrifuged at 300×g for 10 min at room temperature and resuspended in RPMI supplemented with 1% inactivated fetal bovine serum at a cell density of 2×10^6 cells/mL.
Inhibition of TNF-α release: 100 μL of mononuclear cells (2×10^6 cells/mL) are incubated on 96-well plates with 50 μL of the test product (final concentration, 0.001-10 μM) and 50 μL LPS (E. coli 055B5, Sigma) at a final concentration of 400 ng/mL for 19 h at 37° C. in an atmosphere with CO2 at 5%. The amount of TNF-α released in the supernatant is quantified using a commercial ELISA kit (Biosource International).
In general terms: In an ELISA, binding on a coated surface is turned into a signal by an enzyme label.
`Fc1ccc(-c2nc3nn(CCC4CCNCC4)cc3c(-c3ccc(F)cc3)c2-c2ccncc2)cc1` [Example 43, 4,6-Bis(4-fluorophenyl)-2-[2-(4-piperidyl)ethyl]-5-(4-pyridyl)pyrazolo[3,4-b]pyridine] displayed an inhibition at 0.1 µM of 61.2%. In turn, `O=C(CNCCO)NCCn1cc2c(-c3ccc(F)cc3)c(-c3ccncc3)c(-c3ccc(F)cc3)nc2n1` [Example 250, N-[2-[4,6-Bis(4-fluorophenyl)-5-(4-pyridyl)pyrazolo[3,4-b]pyridin-2-yl]ethyl]-2-(2-hydroxyethylamino)acetamide] registered an inhibition at 0.1 µM of 67%. Same read-out and setting: then `Cc1n[nH]c2nc(-c3ccc(F)cc3)c(-c3ccnc(N[C@@H](C)c4ccccc4)n3)cc12` [Example 279, (1S)-N-(1-Phenylethyl)-[4-[6-(4-fluorophenyl)-3-methyl-1H-pyrazolo[3,4-b]pyridin-5-yl]pyrimidin-2-yl]amine], with 100%; and `FC(F)(F)c1cccc(-c2nc3[nH]ncc3cc2-c2ccnc(NCc3ccccc3)n2)c1` [Example 290, N-Benzyl-[4-[6-(3-trifluoromethyl-phenyl)-1H-pyrazolo[3,4-b]pyridin-5-yl]pyrimidin-2-yl]amine], with 65.8%; and `Fc1ccc(-c2nc3nn(C4CCNCC4)cc3c(-c3ccc(F)cc3)c2-c2ccncc2)cc1` [Example 36, 4,6-Bis(4-fluorophenyl)-2-(4-piperidyl)-5-(4-pyridyl)pyrazolo[3,4-b]pyridine], with 92%. Still for that read-out and setting: then `Fc1ccc(-c2nc3[nH]ncc3c(-c3ccc(F)cc3)c2-c2ccncc2)cc1` [Example 1, 4,6-Bis(4-fluorophenyl)-5-(4-pyridyl)-1H-pyrazolo[3,4-b]pyridine], with 57.5%; and `Fc1ccc(-c2nc3[nH]ncc3c(-c3cc[nH]n3)c2-c2ccncc2)cc1` [Example 217, 6-(4-Fluorophenyl)-4-(1H-pyrazol-3-yl)-5-(4-pyridyl)-1H-pyrazolo[3,4-b]pyridine], with 53.8%; and `C[C@H](Nc1nccc(-c2cc3cn[nH]c3nc2-c2cccc(C(F)(F)F)c2)n1)c1ccccc1` [Example 128, (1S)-N-(1-Phenylethyl)-[4-[6-[3-(trifluoromethyl)phenyl]-1H-pyrazolo[3,4-b]pyridin-5-yl]pyrimidin-2-yl]amine], with 82%.

`OC1CCN(CCn2cc3c(-c4ccc(F)cc4)c(-c4ccncc4)c(-c4ccc(F)cc4)nc3n2)CC1` [Example 106, 1-[2-[4,6-Bis(4-fluorophenyl)-5-(4-pyridyl)pyrazolo[3,4-b]pyridin-2-yl]ethyl]piperidin-4-ol] registered an inhibition at 0.1 µM of 69.3%. On the same count and under the same terms, in the case of `CNCCCn1cc2c(-c3ccc(F)cc3)c(-c3ccncc3)c(-c3ccc(F)cc3)nc2n1` [Example 78, N-Methyl-[3-[4,6-bis(4-fluorophenyl)-5-(4-pyridyl)pyrazolo[3,4-b]pyridin-2-yl]propyl]amine] it was 73.3%; in that of `Cc1n[nH]c2nc(-c3ccc(F)cc3)c(-c3ccncc3)c(-c3ccc(F)cc3)c12` [Example 4, 4,6-Bis(4-fluorophenyl)-3-methyl-5-(4-pyridyl)-1H-pyrazolo[3,4-b]pyridine], 68.4%.

Turning to `FC(F)(F)c1cccc(-c2nc3[nH]ncc3cc2-c2ccnc(NCC3CC3)n2)c1` [Example 208, N-Cyclopropylmethyl-[4-[6-[3-(trifluoromethyl)phenyl]-1H-pyrazolo[3,4-b]pyridin-5-yl]pyrimidin-2-yl]amine], the inhibition at 0.1 µM worked out at 67.7%.

`CC(CO)Nc1nccc(-c2cc3cn(C)nc3nc2-c2ccc(F)cc2)n1` (stereo not drawn) [Example 283, 2-[4-[6-(4-Fluorophenyl)-2-methylpyrazolo[3,4-b]pyridin-5-yl]pyrimidin-2-ylamino]propan-1-ol] showed an inhibition at 0.1 µM of 52.4%. Still for that read-out and setting: in the case of `C[C@H](Nc1nccc(-c2cc3cn(CCCO)nc3nc2-c2cccc(C(F)(F)F)c2)n1)c1ccccc1` [Example 209, (1S)-3-[5-[2-(1-Phenylethylamino)-pyrimidin-4-yl]-6-(3-trifluoromethylphenyl)pyrazolo[3,4-b]pyridin-2-yl]propan-1-ol] it was 84.2%; in that of `OCCCn1cc2c(-c3ccccc3)c(-c3ccncc3)c(-c3ccccc3)nc2n1` [Example 137, 3-[4,6-Diphenyl-5-(4-pyridyl)pyrazolo[3,4-b]pyridin-2-yl]propan-1-ol], 61.4%. Take `Cn1cc2c(-c3ccccc3)c(-c3ccncc3)c(-c3ccccc3)nc2n1` [Example 22, 2-Methyl-4,6-diphenyl-5-(4-pyridyl)pyrazolo[3,4-b]pyridine]: the inhibition at 0.1 µM was 56.5%. For `C[S+]([O-])c1ccc(Cn2cc3c(-c4ccc(F)cc4)c(-c4ccncc4)c(-c4ccc(F)cc4)nc3n2)cc1` (stereo not drawn) [Example 59, 4,6-Bis(4-fluorophenyl)-2-(4-methylsulfinylbenzyl)-5-(4-pyridyl)pyrazolo[3,4-b]pyridine], the inhibition at 0.1 µM came to 60%.

The same assay, now with this note: test product at 0.1 μM, LPS 400 ng/mL, 19 h, TNF-α in supernatant by ELISA.
As for `c1ccc(-c2nc3[nH]ncc3cc2-c2ccnc(NCC3CC3)n2)cc1` [Example 282, N-Cyclopropylmethyl-4-[6-[phenyl-1H-pyrazolo[3,4-b]pyridin-5-yl]pyrimidin-2-yl]amine], the “% Inhibition at 0.1 μM” value turned out to be 65.2%.

The values above are taken from patent US7468376B2, “Pyrazolopyridine derivates” (Palau Pharma, S.A., priority 2003, dated 2008).
